The record followed here is paper PMC6983054, “Toxicity and Antitumor Activity of a Thiophene–Acridine Hybrid” (Molecules, 2019).

Series [1] relates to K562 (chronic myeloid leukemic cell line). The series is described as follows: MTT cytotoxicity assay, K562. In kind it is cell-based. The following applies: Homo sapiens, 72 h. From the text:
Colorectal carcinoma cells (HCT-116), chronic myelogenous leukemia (K562), and acute promyelocytic leukemia (HL-60) were generously provided by Dr. Manoel de Moraes (Federal University of Ceará, Fortaleza, Brazil) and cultured in Roswell Park Memorial Institute 1640 (RPMI 1640; Sigma Aldrich, St. Louis, MO, USA) medium supplemented with 10% fetal bovine serum (GIBCO, Grand Island, NY, USA) and 1% penicillin–streptomycin (Sigma Aldrich, St. Louis, MO, USA). […]
MTT (3-(4,5-dimethylthiazol-2-yl)-2,5-diphenyltetrazolium bromide) reduction assay was used to evaluate the cytotoxicity of ACS03 and its precursors (2-amino-5,6,7,8-tetrahydro-4H-cyclohepta[b]thiophene-3-carbonitrile and 6,9-dichloro-2-methoxyacridine) against tumor and non-tumor cell lines and PBMC. […] The optical density was measured using a microplate spectrophotometer reader (Microplate reader BioTek Instruments, Sinergy HT, Winooski, VT, USA) at λ = 570 nm and used to calculate the IC50 (half maximal inhibitory concentration).

The subject of series [2] is GST (Glutathione S-transferase). Put plainly: GST activity in zebrafish larvae. In kind it is in vivo, zebrafish (Danio rerio). Conditions: 96 h, control 31.8 ± 0.05. As for the experimental part: (§1) The FET test was repeated for ACS03 under the same conditions described above, but this time the embryos were independently exposed to three concentrations (10, 20, and 40 µM). At the end of the exposure period (96 h), the larvae were quickly frozen in a ratio of 1 larva per 100 µL of 0.1 M sodium phosphate buffer, pH 7.4.
(§2) Larval groups from each of the three tested concentrations and a negative control group (exposed to E3 medium only) were macerated using 1:9 (w/v) cold 0.9% NaCl solution. The homogenates were centrifuged at 10,000× g for 10 min at 4 °C, and the resulting supernatants were used for the measurement of soluble protein content and enzyme activity. The activities of acetylcholinesterase (AChE), glutathione S-transferase (GST), and lactate dehydrogenase (LDH) were measured according to Domingues et al. (2010). Tests were done in quadruplicate for each enzyme.

Series [3] concerns AChE (Acetylcholinesterase). The series is described as follows: AChE activity in zebrafish larvae. Conditions: 96 h, control 66.35 ± 0.04. In kind it is in vivo, zebrafish (Danio rerio). As for the experimental part:
as §1, §2

Another series has as its system nitrite (nitric oxide). The series is described as follows: Nitrite levels in ascitic fluid, Ehrlich ascites carcinoma model (Griess). In kind it is in vivo, mice (Mus musculus). The following applies: peritoneal fluid, 12.5 mg/kg; control 36.09 ± 0.72 µM. As for the experimental part: The nitrite concentration in the ascitic fluid was measured using Griess reagent. For this, the peritoneal fluid of control and treated animals (12.5 mg/kg ACS03 and 25 mg/kg 5-FU) was used. The optical density was measured using a microplate spectrophotometer reader (Microplate reader BioTek Instruments, Sinergy HT, Winooski, VT, USA) at λ = 560 nm. Concentrations of nitrite were calculated from a standard curve previously established with known molar concentrations of sodium nitrite. The tests were done in quadruplicate and the values expressed in µM [51].

In the case of `COc1ccc2nc3cc(Cl)ccc3c(Nc3sc4c(c3C#N)CCCCC4)c2c1` [ACS03, 2-((6-Chloro-2-methoxyacridin-9-yl)amino)-5,6,7,8-tetrahydro-4H-cyclohepta[b]-thiophene-3-carbonitrile], the IC50 in series [1] was > 50 µM. Also, the GST activity in series [2] (10 µM) amounted to 57.96 ± 0.23; in series [2] (20 µM), 75.83 ± 0.13; in series [2] (40 µM), 86.14 ± 0.21. Moreover, the AChE activity in series [3] (10 µM) worked out at 85.67 ± 0.11; in series [3] (20 µM), 94.59 ± 0.20; in series [3] (40 µM), 94.54 ± 0.10. Also, the nitrite concentration in the series on nitrite (nitric oxide) was determined as 188.5 ± 7.98 µM.
